Laboratory results reported in PMC13503962, “Uncovering the genetic basis of fruit volatiles in Fragaria vesca through GWAS reveals FvJMT2 as a methyl benzoate biosynthesis gene with bioactivity against Drosophila suzukii” (Horticulture Research, 2026).

System: T1, FvJMT2 (FvJMT2^C275, functional full-length allele)
T1 construct: full-length CDS (1173 nt, 390 residues) in pQE80L, N-terminal 6xHis tag, E. coli XL1-Blue, Ni-NTA purified; tag removal not mentioned
Assay: radiochemical methyl transfer from […]-SAM, hexane extraction, scintillation counting; nonlinear Michaelis-Menten fit
Assay type: biochemical, Fragaria vesca
Conditions: co-substrate SAM (saturating); 50 mM Tris-HCl pH 7.5, 2.5 mM MgCl2, 5 mM DTT, 2.5 mM EDTA, 30 °C; read-out: Kinetic parameters / Km /

Km [µM] | Structure (SMILES)
174 | CC/C=C\C[C@H]1C(=O)CC[C@@H]1CC(=O)O [Jasmonic acid]
577 | O=C(O)c1ccccc1 [Benzoic acid]
690 | O=C(O)c1ccccc1O [Salicylic acid]
597 | O=C(O)/C=C/c1ccccc1 [Cinnamic acid]
